Reference: US10815264B2, “Nucleotides for the treatment of cancer” (IDENIX PHARMACEUTICALS LLC, priority 2015, dated 2020)
pIC50: −log10 of the molar value. Read-outs that look alike come from different tables or passages of the source.

How the values were obtained:
Assay in all cases: In vitro inhibition, CellTiter-Glo (CTG) assay, 72 hr exposure
Assay type in all cases: cell-based
A498 = system: A498
Experimental: (§1) Cells were grown in RPMI-1640 supplemented with L-Glutamine and 10% FBS of the following cell lines:
(§2) CCRF-CEM; CCRF-CEM-cytarabine resistant; HL-60; K562; CFPAC-1; MiaPACA-2; BxPC-3; PANC-1; HepG2; MDA-MB-231; HCT-116; A498; and NCI-H69
(§3) 18, 96 well plates of each cell line were seeded with the optimized number of cells per well in a total volume of 50 μL per well. The plates were left overnight. Plate wells were seeded with 100 μL media for media control. The following day, cells were exposed to test compounds as described below. At the same time as drug exposure, a CTG assay was conducted on the 18th plate for the 0 hr count.
(§4) The compounds were added to cells and medium already on the plate to give desired final concentrations. 50 μL media were added to cell control wells, and 50 μL of mix added to vehicle control wells. 10 μM Doxorubicin was added to appropriate wells. Cells exposed to test compound were incubated at 37° C. for 72 hr followed by a CTG assay.
(§5) At the end of the 72 hr exposure period, plates were removed for a CellTiter-Glo (CTG) assay from a 37° C., 5% CO2 incubator and placed on the bench at room temperature for 30 mins. 100 μL of CellTiter-Glo reagent was added and mixed for 2 mins, followed by a further 10 min incubation at room temperature. Luminescence was recorded using Synergy 4.0.

BxPC-3 = system: BxPC-3
Experimental: as §1, §2, §3, §4, §5

[1] = system: CCRF-CEM-cytarabine resistant
Experimental: as §1, §2, §3, §4, §5

CCRF-CEM = system: CCRF-CEM
Experimental: as §1, §2, §3, §4, §5

CFPAC-1 = system: CFPAC-1
Experimental: as §1, §2, §3, §4, §5

HCT-116 = system: HCT-116
Experimental: as §1, §2, §3, §4, §5

HL-60 = system: HL-60
Experimental: as §1, §2, §3, §4, §5

HepG2 = system: HepG2
Experimental: as §1, §2, §3, §4, §5

K562 = conditions: K562, 72 hr
Experimental: as §1, §2, §3, §4, §5

MDA-MB-231 = conditions: MDA-MB-231, 72 hr
Experimental: as §1, §2, §3, §4, §5

MiaPACA-2 = system: MiaPACA-2
Experimental: as §1, §2, §3, §4, §5

NCI-H69 = system: NCI-H69
Experimental: as §1, §2, §3, §4, §5

PANC-1 = conditions: PANC-1, 72 hr
Experimental: as §1, §2, §3, §4, §5

[2] = Homo sapiens, MIA PaCa-2, MiaPACA-2, 72 hr

| Compound | pIC50 (A498; A498, 72 hr) | pIC50 (BxPC-3; BxPC-3, 72 hr) | pIC50 [1] | pIC50 (CCRF-CEM) | pIC50 (CFPAC-1; CFPAC-1, 72 hr) | pIC50 (HCT-116; HCT-116, 72 hr) | pIC50 (HL-60; HL-60, 72 hr) | pIC50 (HepG2; HepG2, 72 hr) | pIC50 (K562) | pIC50 (MDA-MB-231) | pIC50 (MiaPACA-2; MiaPACA-2, 72 hr) | pIC50 (NCI-H69; NCI-H69, 72 hr) | pIC50 (PANC-1) | pIC50 (CCRF-CEM; Homo sapiens, 72 h) | pIC50 (HL-60; Homo sapiens, HL-60, 72 h) | pIC50 (HepG2; Homo sapiens, HepG2, 72 h) | pIC50 (K562; Homo sapiens) | pIC50 (MDA-MB-231; Homo sapiens) | pIC50 (MiaPACA-2; [2]) | pIC50 (PANC-1; Homo sapiens) | further results |
| --- | --- | --- | --- | --- | --- | --- | --- | --- | --- | --- | --- | --- | --- | --- | --- | --- | --- | --- | --- | --- | --- |
| CCOC(=O)COP(=O)(N[C@@H](CC(C)C)C(=O)OCC)OC[C@H]1S[C@@H](n2ccc(N)nc2=O)[C@@H](O)[C@@H]1O (single isomer, unassigned) [Compound 102b (diastereoisomer 2)] | 4.00 to 5.00 | 4.00 to 5.00 | 4.00 to 5.00 | > 6.00 | 4.00 to 5.00 | 4.00 to 5.00 | 5.00 to 6.00 | 4.00 to 5.00 | 4.00 to 5.00 | 4.00 to 5.00 | 4.00 to 5.00 | 4.00 to 5.00 | 4.00 to 5.00 | – | – | – | – | – | – | – | – |
| Nc1ccn([C@@H]2S[C@H](COP(=O)(NCc3ccccc3)OCc3ccc([N+](=O)[O-])o3)[C@@H](O)[C@@H]2O)c(=O)n1 (single isomer, unassigned) [Compound 103 (diastereoisomer 1)] | 4.00 to 5.00 | 4.00 to 5.00 | 5.00 to 6.00 | – | 4.00 to 5.00 | 4.00 to 5.00 | – | – | – | – | – | 4.00 to 5.00 | – | > 6.00 | > 6.00 | 5.00 to 6.00 | 5.00 to 6.00 | 4.00 to 5.00 | 5.00 to 6.00 | 4.00 to 5.00 | – |
| Nc1ccn([C@@H]2S[C@H](COP(=O)(NCc3ccccc3)OCc3ccc([N+](=O)[O-])o3)[C@@H](O)[C@@H]2O)c(=O)n1 (single isomer, unassigned) [Compound 103 (diastereoisomer 2)] | 5.00 to 6.00 | 5.00 to 6.00 | 5.00 to 6.00 | > 6.00 | 5.00 to 6.00 | 5.00 to 6.00 | > 6.00 | 5.00 to 6.00 | 5.00 to 6.00 | 4.00 to 5.00 | 5.00 to 6.00 | 5.00 to 6.00 | 4.00 to 5.00 | – | – | – | – | – | – | – | – |
| COC(=O)COP(=O)(N[C@@H](CC(C)C)C(=O)OC)OC[C@H]1S[C@@H](n2ccc(N)nc2=O)[C@@H](O)[C@@H]1O (single isomer, unassigned) [Compound 104b (diastereoisomer 1)] | – | – | 4.00 to 5.00 | – | – | – | – | 5.00 to 6.00 | – | – | – | – | – | > 6.00 | 5.00 to 6.00 | – | 4.00 to 5.00 | 4.00 to 5.00 | 4.00 to 5.00 | 4.00 to 5.00 | pIC50 (A498; Homo sapiens, A498, 72 h): 4.00 to 5.00; pIC50 (BxPC-3; Homo sapiens, BXPC-3, 72 h): 4.00 to 5.00; pIC50 (CFPAC-1; Homo sapiens, CFPAC-1, 72 h): 4.00 to 5.00; pIC50 (HCT-116; Homo sapiens, HCT-116, 72 h): 4.00 to 5.00; pIC50 (NCI-H69; Homo sapiens, NCI-H69, 72 h): 4.00 to 5.00 |
| COC(=O)COP(=O)(N[C@@H](CC(C)C)C(=O)OC)OC[C@H]1S[C@@H](n2ccc(N)nc2=O)[C@@H](O)[C@@H]1O (single isomer, unassigned) [Compound 104b (diastereoisomer 2)] | 4.00 to 5.00 | 4.00 to 5.00 | 4.00 to 5.00 | > 6.00 | 4.00 to 5.00 | 4.00 to 5.00 | > 6.00 | 4.00 to 5.00 | 4.00 to 5.00 | 4.00 to 5.00 | 4.00 to 5.00 | 4.00 to 5.00 | 4.00 to 5.00 | – | – | – | – | – | – | – | – |
| CC(C)(C)SSCCOP(=O)(NCc1ccccc1)OC[C@H]1S[C@@H](n2ccc(N)nc2=O)[C@@H](O)[C@@H]1O (single isomer, unassigned) [Compound 105 (diastereoisomer 1)] | – | – | 4.00 to 5.00 | 5.00 to 6.00 | – | – | 5.00 to 6.00 | – | – | – | – | 5.00 to 6.00 | – | – | – | 4.00 to 5.00 | 4.00 to 5.00 | 4.00 to 5.00 | 5.00 to 6.00 | 4.00 to 5.00 | pIC50 (A498; Homo sapiens, A498, 72 h): 4.00 to 5.00; pIC50 (BxPC-3; Homo sapiens, BXPC-3, 72 h): 4.00 to 5.00; pIC50 (CFPAC-1; Homo sapiens, CFPAC-1, 72 h): 4.00 to 5.00; pIC50 (HCT-116; Homo sapiens, HCT-116, 72 h): 4.00 to 5.00 |
| CC(C)(C)SSCCOP(=O)(NCc1ccccc1)OC[C@H]1S[C@@H](n2ccc(N)nc2=O)[C@@H](O)[C@@H]1O (single isomer, unassigned) [Compound 105 (diastereoisomer 2)] | 4.00 to 5.00 | 4.00 to 5.00 | 4.00 to 5.00 | 4.00 to 5.00 | 4.00 to 5.00 | 4.00 to 5.00 | 4.00 to 5.00 | 4.00 to 5.00 | 4.00 to 5.00 | 4.00 to 5.00 | 5.00 to 6.00 | 4.00 to 5.00 | 4.00 to 5.00 | – | – | – | – | – | – | – | – |
| CC(=O)OC[C@H](C)NP1(=O)OC[C@H]2S[C@@H](n3ccc(N)nc3=O)[C@@H](O)[C@@H]2O1 (single isomer, unassigned) [Compound 108b (diastereoisomer 1)] | – | – | 4.00 to 5.00 | – | – | – | – | – | – | – | – | – | – | 4.00 to 5.00 | 4.00 to 5.00 | 4.00 to 5.00 | 4.00 to 5.00 | 4.00 to 5.00 | 4.00 to 5.00 | 4.00 to 5.00 | pIC50 (A498; Homo sapiens, A498, 72 h): 4.00 to 5.00; pIC50 (BxPC-3; Homo sapiens, BXPC-3, 72 h): 4.00 to 5.00; pIC50 (CFPAC-1; Homo sapiens, CFPAC-1, 72 h): 4.00 to 5.00; pIC50 (HCT-116; Homo sapiens, HCT-116, 72 h): 4.00 to 5.00; pIC50 (NCI-H69; Homo sapiens, NCI-H69, 72 h): 4.00 to 5.00 |
| Nc1ccn([C@@H]2S[C@H](COP(=O)(O)NCc3ccccc3)[C@@H](O)[C@@H]2O)c(=O)n1 [Compound 107, [(2R,3S,4S,5R)-5-(4-amino-2-oxo-pyrimidin-1-yl)-3,4-dihydroxy-tetrahydrothiophen-2-yl]methoxy-N-benzyl-phosphonamidic acid] | – | – | 4.00 to 5.00 | – | – | – | – | – | – | – | – | – | – | 5.00 to 6.00 | 5.00 to 6.00 | 5.00 to 6.00 | 4.00 to 5.00 | 4.00 to 5.00 | 5.00 to 6.00 | 4.00 to 5.00 | pIC50 (A498; Homo sapiens, A498, 72 h): 4.00 to 5.00; pIC50 (BxPC-3; Homo sapiens, BXPC-3, 72 h): 4.00 to 5.00; pIC50 (CFPAC-1; Homo sapiens, CFPAC-1, 72 h): 4.00 to 5.00; pIC50 (HCT-116; Homo sapiens, HCT-116, 72 h): 4.00 to 5.00; pIC50 (NCI-H69; Homo sapiens, NCI-H69, 72 h): 4.00 to 5.00 |
